“And” between values parts separate entries of the source, which are not always exact repeats. Equal entries are not always repeated.
Experiments:
[1] = tested on: Splenocytes and thymocytes; assay: Apoptosis by Annexin-V staining and flow cytometry; format: cell-based, rat; conditions: for Effect on apoptosis in cells following any of the culture periods: culture 6, 24, 48 or 72 h; for Effect on ConA-induced apoptosis in thymocytes: morphine 10^−8 to 10^−18 mol/l; for Effect on apoptosis in basal non-activated splenocytes and thymocytes: pre-incubation 1 h, basal apoptosis 4-8%
Description: Splenocytes and thymocytes obtained from adult male Wistar rats were cultured as previously described (10). Cells were incubated with EM-1, EM-2 or morphine at various concentrations for 1 h and were then activated with either Concanavalin A (ConA, 5 μg/ml, Sigma UK) or lipopolysaccharide (LPS, 25 μg/ml, Sigma, UK) and cultured for 6, 24, 48 or 72 h. After culture, cells were stained with Annexin-V-Fluos (Roche, Mannheim, Germany) and analysed by flow cytometry (Becton Dickinson, UK). Apoptosis in basal non-activated splenocytes and thymocytes was 4-8%, and pre-incubation with EM-1, EM-2 or morphine had no effect on this. ConA at 1 or 5 μg/ml induced 10-15 and 20-30% apoptosis respectively in rat splenocytes, values which were not altered by pre-incubation with EM-2 at concentrations of 10^−8 to 10^−18 mol/l. […] No effect of morphine, EM-1 or EM-2 was observed on apoptosis in cells following any of the culture periods.

[2] = tested on: rat Fas in splenocytes and thymocytes; assay: Fas expression by antibody staining and flow cytometry; format: cell-based; conditions: basal or ConA activated splenocytes and thymocytes, cultured 6 h
Description: Splenocytes and thymocytes, whether basal or ConA activated, were cultured for 6h in the presence of EM-1, EM-2 or morphine (concentration ranges as above) and were then stained with an antibody specific for rat Fas (Transduction Laboratories, Lexington, Ky., USA) and analysed by flow cytometry.

[3] = tested on: Adjuvant arthritis (AA) in adult male Wistar rats; assay: Intraplantar treatment with endomorphin 1 prior to onset of inflammation in adjuvant arthritis rats; format: in vivo, rat; conditions: for Mean Paw Volume: days 9-13, day 14, vehicle 2.924
Description: (§1) Adjuvant arthritis (AA) was induced in adult male Wistar rats by a single intradermal injection (0.1 ml) of a suspension of ground, heat-killed M. butyricum in paraffin oil (10 mg/ml) into the tail base (9). Rats were despatched 14 days following injection and spleens, thymuses and hind paws were collected on dry ice and stored at −80° C. Spleens, thymuses and synovial tissue from the paws were acid-extracted and the extracts were measured for the presence of EM-1 and EM-2 by RIAs (8). EM-1 contents in the spleen (p<0.05) and thymus (p<0.075) were elevated compared to tissues from non-AA controls (FIG. 4). […] Neither EM-1 or EM-2 were detectable in extracts of synovial tissues from control non-AA rats (FIG. 5).
(§2) Adjuvant arthritis (AA) was induced in adult male Wistar rats using the same protocol as described in Example 2 with saline vehicle or endomorphin 1 in saline being injected on days 9, 10, 11, 12 and 13 after adjuvant injection and prior to the onset of inflammation.

[4] = tested on: arthritic male Wistar rats; assay: Intraperitoneal administration of EM-1 prior to onset of inflammation in arthritic rats; format: in vivo, rat; parameters: Mean Paw Volume: unit not given beside the values; conditions: for Mean Paw Volume: n=7
Description: as §2
The protocol of Example 3 above was followed using intraperitoneal injection of 0.1 and 1.0 μmol Endomorphin-1 or vehicle in arthritic male Wistar rats prior to the onset of inflammation.
EM-1 or vehicle was administered on days 9, 10, 11, 12 and 13.

[5] = tested on: Adjuvant arthritis (AA) in adult male Lewis rats; assay: Intraperitoneal treatment of existing inflammation with endomorphin in adjuvant arthritis rats; format: in vivo, rat
Description: as §1
Adjuvant arthritis (AA) was induced in adult male Lewis rats as above. Saline vehicle or 1 μmol of endomorphin in saline was given as an intraperitoneal (ip) injection on days 11, 12 and 13 after adjuvant injection, and after the onset of inflammation, to assess the modulation effect of the endomorphin.

CN1CC[C@]23c4c5ccc(O)c4O[C@H]2[C@@H](O)C=C[C@H]3[C@H]1C5 [morphine, reference compound]
Effect on apoptosis in cells following any of the culture periods [1]: No effect | Effect on ConA-induced apoptosis in thymocytes [1]: Neither EM-1, EM-2 nor morphine (concentration range of morphine 10^−8 to 10^−18 mol/l) had any effect | Effect on apoptosis in basal non-activated splenocytes and thymocytes [1]: had no effect | Alteration in expression of Fas [2]: No alteration

endomorphin-1 [EM-1]
Mean Paw Volume ([3]; 10 pmol intraplantar, n=14): 2.779 mL | Mean Paw Volume ([3]; 100 pmol intraplantar, n=14): 2.381 mL | Mean Paw Volume ([3]; 1 nmol intraplantar, n=12): 2.638 mL | Mean Paw Volume ([3]; 10 nmol intraplantar, n=14): 2.260 mL | Mean Paw Volume ([3]; 100 fmol intraplantar, n=14): 2.450 mL | Reduction of inflammation (decrease in paw volume compared to the vehicle group) ([3]; intraplantar injection, 100 fmols): ≤ 16% | Mean Paw Volume ([4]; 0.1 μmol ip group, Day 0 (before treatment on days 9-13)): 1.613 | Mean Paw Volume ([4]; 0.1 μmol ip on days 9-13, Day 14, vehicle 2.927): 2.494 | Mean Paw Volume ([4]; 1.0 μmol ip group, Day 0 (before treatment on days 9-13)): 1.723 | Mean Paw Volume ([4]; 1.0 μmol ip on days 9-13, Day 14, vehicle 2.927): 2.349 | Reduction in inflammation ([4]; 1 μmol ip, prophylactically): 20% | Effect on existing inflammation ([5]; dose of 1 μmol ip): reduce existing inflammation | Paw Volume ([5]; individual rats, 1 μmol ip on days 11, 12 and 13 after adjuvant, after onset of inflammation, day 14, listed as Endomorphin (EM-1)): 3.15 ml and 3.04 ml and 2.57 ml (2×) and 2.41 ml and 2.81 ml and 2.35 ml and 2.61 ml | Paw Volume, mean ([5]; n=8, SEM=0.10, 1 μmol ip on days 11, 12 and 13, day 14, vehicle mean 2.96): 2.69 mL | Effect on apoptosis in cells following any of the culture periods [1]: No effect | Effect on ConA-induced apoptosis in thymocytes [1]: Neither EM-1, EM-2 nor morphine (concentration range of morphine 10^−8 to 10^−18 mol/l) had any effect | Effect on apoptosis in basal non-activated splenocytes and thymocytes [1]: had no effect | Alteration in expression of Fas [2]: No alteration

endomorphin-2 [EM-2]
Effect on ConA-induced apoptosis in rat splenocytes ([1]; ConA 1 or 5 μg/ml, pre-incubation at 10^−8 to 10^−18 mol/l): not altered | Effect on LPS-induced apoptosis ([1]; LPS 5 and 25 μg/ml, 10-12% apoptosis): did not alter | Effect on apoptosis in cells following any of the culture periods [1]: No effect | Effect on ConA-induced apoptosis in thymocytes [1]: Neither EM-1, EM-2 nor morphine (concentration range of morphine 10^−8 to 10^−18 mol/l) had any effect | Effect on apoptosis in basal non-activated splenocytes and thymocytes [1]: had no effect | Alteration in expression of Fas [2]: No alteration

— patent publication US20040266805A1, “Inflammation modulatory compound” (priority 2001, published 2004)
